According to patent publication US20100222404A1, “INDAZOLE DERIVATIVE DIHYDROCHLORIDE” (ASAHI KASEI PHARMA CORPORATION, priority 2008, published 2010):

Assays:
[1] = Blood concentration measurement test (AUC after oral enteric capsule); type: in vivo, male beagle dogs; details: for AUC(0-inf): dog, compound 1 free form measured in blood plasma, read-out: AUCinf mean; for AUC(0-inf) / AUCinf CV (coefficient of variation): male beagle dogs, fasting, oral enteric capsule, 1 mg/kg as free form
Protocol: The “monohydrochloride salt” and the “dihydrochloride salt” were respectively filled in an enteric capsule (Eudragit L coat, No. 5) to an amount of administration of 1 mg/kg in terms of the “compound 1” in a free form. The capsules were forcibly orally administered to male beagle dogs (Oriental Yeast Co., Ltd.) under fasting. 0.5, 1, 2, 3, 4, 6, 8, 10 and 24 hours after the administration, about 1 mL of blood was collected from the cephalic vein under non-anesthesia conditions, with a 2.5-mL syringe through which a heparin sodium solution had been passed through in advance (equipped with a 23 G injection needle). The collected blood was cooled in ice, and the blood plasma was separated by a centrifugal operation. After a lapse of 6 hours from the administration, the dogs were fed with a usual amount of food. The concentration of the “compound 1” in a free form in the blood plasma was measured by the LC/MS/MS method in each case, and the AUC was calculated using the Non-Compartment model of WinNonlin software v5.0.1. (in the table, AUCinf means the “AUC obtained when the blood plasma concentration was extrapolated from zero to the infinity”, mean is the “average”, SD is the “standard deviation”, and CV is the “coefficient of variation”.)

[2] = Test for measuring solubility (Test Example 1, saturated solution by HPLC); type: physicochemical; details: for solubility thermodynamic at 1 h: thermodynamic from solid, room temperature, read-out: Saturated solution concentration
Protocol: About 50 mg each of the “monohydrochloride salt” and the “dihydrochloride salt” were precisely weighed, and were each suspended in a solvent so as to obtain a concentration of 500 mg/ml, respectively. Each suspension was sonicated for 10 minutes, and then was shaken at room temperature for one hour. Subsequently, each of the supernatant of the suspension was subjected to centrifugal filtration (10° C., 3000 RPM, 20 minutes) using a centrifugal filter (Ultrafree-MC PTFE 0.2 μm, manufactured by Millipore, Inc.), to thereby prepare a saturated solution. Each of the saturated solutions was analyzed by HPLC, and the concentration of the saturated solution was calculated from the peak area.

[3] = Test for measuring solubility (Test Example 2, saturated solution by HPLC); type: physicochemical; details: room temperature; for solubility thermodynamic at 1 h: thermodynamic from solid, read-out: Saturated solution concentration
Protocol: The “dihydrochloride salt” was precisely weighed in the amounts indicated in Table 2, and 20 ml each of the solvent was added to the weighed samples. The samples were shaken for one hour at room temperature. After it was visually checked that the samples were not completely dissolved, the samples were centrifuged (10° C., 3000 RPM, 20 minutes), and the supernatant was filtered through a Membrane filter, to thereby produce saturated solutions. Each of the saturated solutions was analyzed by HPLC, and the concentration of the saturated solution was calculated from the peak area.

[4] = aqueous buffer, pH 6.8 Buffer solution (phosphate buffer solution)
[5] = saline or isotonic, Physiological saline, shaken one hour
[6] = simulated gastric fluid, pH 1.2 Buffer solution (1st fluid for dissolution test)

AUC(0-inf) [1] [ng·h/mL]	Variation of the AUC (CV) compared with the monohydrochloride salt ([1]; dogs, oral administration using enteric capsules)	AUCinf CV (coefficient of variation) [1] [%]	solubility thermodynamic at 1 h [2, 4] [mg/mL]	Solubility compared with the monohydrochloride salt ([2]; results of Table 1)	solubility thermodynamic at 1 h [2, 5] [mg/mL]	solubility thermodynamic at 1 h [2, 6] [mg/mL]	solubility thermodynamic at 1 h ([2]; Water, shaken one hour) [mg/mL]	Saturated solution concentration ([3]; Ethanol, 0.1 g in 20 ml) [mg/mL]	solubility thermodynamic at 1 h ([3]; aqueous buffer, pH 4.0 Buffer solution (0.05 mol/L acetic acid/sodium acetate), 4 g in 20 ml) [mg/mL]	solubility thermodynamic at 1 h ([3]; aqueous buffer, pH 6.8 Buffer solution (2nd fluid for dissolution test), 4 g in 20 ml) [mg/mL]	solubility thermodynamic at 1 h ([3]; saline or isotonic, Physiological saline, 5 g in 20 ml) [mg/mL]	solubility thermodynamic at 1 h ([3]; simulated gastric fluid, pH 1.2 Buffer solution (1st fluid for dissolution test), 4 g in 20 ml) [mg/mL]	solubility thermodynamic at 1 h ([3]; Water, 5 g in 20 ml) [mg/mL]	Structure (SMILES)
1390	smaller	29.5	210	significantly higher solubility	125	128	189	0.516	147	156	98.8	97.8	143	Cc1n[nH]c2cc(OCCNC[C@H](O)c3cccc(NS(C)(=O)=O)c3)ccc12.Cl.Cl [dihydrochloride salt, (R)—N-[3-[2-[2-(3-methylindazol-6-yloxy)ethylamino]-1-hydroxyethyl]phenyl]methanesulfonamide dihydrochloride]
1110		70.0	23.7		32.2	73.5	36.7							Cc1n[nH]c2cc(OCCNC[C@H](O)c3cccc(NS(C)(=O)=O)c3)ccc12.Cl [monohydrochloride salt, (R)—N-[3-[2-[2-(3-methylindazol-6-yloxy)ethylamino]-1-hydroxyethyl]phenyl]methanesulfonamide hydrochloride, reference compound]
